Reference: patent US7163946B2 (Ligand Pharmaceuticals Incorporated, priority 2002, dated 2007)
Read-outs that look alike come from different tables or passages of the source.

Target: T1, hPR (Homo sapiens, UniProt P06401)
T1 sequence (P06401 1-933): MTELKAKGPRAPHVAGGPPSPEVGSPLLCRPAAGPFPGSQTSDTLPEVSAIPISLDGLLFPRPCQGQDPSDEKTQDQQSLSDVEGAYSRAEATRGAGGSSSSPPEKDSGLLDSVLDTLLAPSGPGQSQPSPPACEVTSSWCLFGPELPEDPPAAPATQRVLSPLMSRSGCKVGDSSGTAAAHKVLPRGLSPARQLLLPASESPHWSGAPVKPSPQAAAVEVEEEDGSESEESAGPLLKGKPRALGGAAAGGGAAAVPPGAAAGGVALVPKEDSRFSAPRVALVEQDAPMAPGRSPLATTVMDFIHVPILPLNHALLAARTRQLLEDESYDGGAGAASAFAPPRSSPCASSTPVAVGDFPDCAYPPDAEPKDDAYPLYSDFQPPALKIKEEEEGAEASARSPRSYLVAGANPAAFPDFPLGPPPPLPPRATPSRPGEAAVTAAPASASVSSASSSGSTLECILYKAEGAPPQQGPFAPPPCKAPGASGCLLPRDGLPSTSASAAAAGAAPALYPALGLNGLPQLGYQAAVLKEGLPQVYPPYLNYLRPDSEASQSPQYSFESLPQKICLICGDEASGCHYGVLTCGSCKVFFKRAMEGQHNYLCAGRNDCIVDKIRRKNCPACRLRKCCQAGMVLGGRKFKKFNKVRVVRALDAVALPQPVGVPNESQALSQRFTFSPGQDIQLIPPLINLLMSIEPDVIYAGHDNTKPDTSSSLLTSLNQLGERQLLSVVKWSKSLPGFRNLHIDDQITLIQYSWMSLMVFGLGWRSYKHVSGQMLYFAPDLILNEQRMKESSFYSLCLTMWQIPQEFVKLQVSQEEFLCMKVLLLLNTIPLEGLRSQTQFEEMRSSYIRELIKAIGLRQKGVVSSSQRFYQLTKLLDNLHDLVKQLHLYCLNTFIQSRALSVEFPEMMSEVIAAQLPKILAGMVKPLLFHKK
Test: hPR cotransfection assay in CV-1 cells, agonist mode
Type: cell-based
Conditions: Tables 3 and 4, values without footnote

[1] = read-out: hPR agonist potencies (EC50 in nM) in the cotransfection assay
[2] = hPR agonist potencies (EC50 in nM) in the cotransfection assay

EC50 [1]	SMILES	EC50 [2]
3.85 nM	CC1=CC(C)(C)Nc2ccc3c(c21)C(c1ccc2c(c1)OCO2)Oc1c(F)cc(F)cc1-3 (racemic) [Compound 35, (±)-7,9-difluoro-5-(1,3-benzodioxol-5-yl)-1,2-dihydro-2,2,4-trimethyl-5H-chromeno[3,4-f]quinoline]	–
4.96 nM	CC1=CC(C)(C)Nc2ccc3c(c21)C(c1ccc(Br)cc1)Oc1c(F)cc(F)cc1-3 (racemic) [Compound 36, (±)-7,9-difluoro-5-(4-bromophenyl)-1,2-dihydro-2,2,4-trimethyl-5H-chromeno[3,4-f]quinoline]	–
6.66 nM	CC1=CC(C)(C)Nc2ccc3c(c21)C(c1cccc(F)c1)Oc1c(F)cc(F)cc1-3 (racemic) [Compound 40, (±)-7,9-difluoro-5-(3-fluorophenyl)-1,2-dihydro-2,2,4-trimethyl-5H-chromeno[3,4-f]quinoline]	–
3.65 nM	CC1=CC(C)(C)Nc2ccc3c(c21)C(c1cccc(Br)c1)Oc1c(F)cc(F)cc1-3 (racemic) [Compound 42, (±)-7,9-difluoro-5-(3-bromophenyl)-1,2-dihydro-2,2,4-trimethyl-5H-chromeno[3,4-f]quinoline]	–
5.1 nM	CC1=CC(C)(C)Nc2ccc3c(c21)C(c1ccc(Cl)cc1)Oc1c(F)cc(F)cc1-3 (racemic) [Compound 43, (±)-7,9-difluoro-5-(4-chlorophenyl)-1,2-dihydro-2,2,4-trimethyl-5H-chromeno[3,4-f]quinoline]	–
–	CC1=CC(C)(C)Nc2ccc3c(c21)C(C)Oc1c(F)cc(F)cc1-3 (racemic) [Compound 44, (±)-7,9-difluoro-1,2-dihydro-2,2,4,5-tetramethyl-5H-chromeno[3,4-f]quinoline]	1.4 nM
6.93 nM	CCC1Oc2c(F)cc(F)cc2-c2ccc3c(c21)C(C)=CC(C)(C)N3 (racemic) [Compound 46, (±)-7,9-difluoro-5-ethyl-1,2-dihydro-2,2,4-trimethyl-5H-chromeno[3,4-f]quinoline]	–
15 nM	CCCCC1Oc2c(F)cc(F)cc2-c2ccc3c(c21)C(C)=CC(C)(C)N3 (racemic) [Compound 52, (±)-7,9-difluoro-5-butyl-1,2-dihydro-2,2,4-trimethyl-5H-chromeno[3,4-f]quinoline]	–
3.6 nM	C=CCC1Oc2c(F)cc(F)cc2-c2ccc3c(c21)C(C)=CC(C)(C)N3 (racemic) [Compound 55, (±)-7,9-difluoro-5-allyl-1,2-dihydro-2,2,4-trimethyl-5H-chromeno[3,4-f]quinoline]	–
1.6 nM	CC1=CC(C)(C)Nc2ccc3c(c21)C(c1cccc(C(F)(F)F)c1)Oc1c(F)cc(F)cc1-3 (racemic) [Compound 56, (±)-7,9-difluoro-5-[3-(trifluoromethyl)phenyl]-1,2-dihydro-2,2,4-trimethyl-5H-chromeno[3,4-f]quinoline]	–
1.92 nM	CC1=CC(C)(C)Nc2ccc3c(c21)/C(=C/c1ccccc1Cl)Oc1c(F)cc(F)cc1-3 [Compound 13, 7,9-difluoro-5(Z)-(2-chlorobenzylidene)-1,2-dihydro-2,2,4-trimethyl-5H-chromeno[3,4-f]quinoline]	–
3.7 nM	CC1=CC(C)(C)Nc2ccc3c(c21)/C(=C/c1ccc(F)cc1)Oc1c(F)cc(F)cc1-3 [Compound 16, 7,9-difluoro-5(Z)-(4-fluorobenzylidene)-1,2-dihydro-2,2,4-trimethyl-5H-chromeno[3,4-f]quinoline]	–
8.2 nM	CC1=CC(C)(C)Nc2ccc3c(c21)/C(=C/c1cccc(F)c1C)Oc1c(F)cc(F)cc1-3 [Compound 21, 7,9-difluoro-5(Z)-(2-methyl-3-fluorobenzylidene)-1,2-dihydro-2,2,4-trimethyl-5H-chromeno[3,4-f]quinoline]	–
1.66 nM	CC1=CC(C)(C)Nc2ccc3c(c21)/C(=C/c1ccccc1C)Oc1c(F)cc(F)cc1-3 [Compound 81, 7,9-difluoro-5(Z)-(2-methylbenzylidene)-1,2-dihydro-2,2,4-trimethyl-5H-chromeno[3,4-f]quinoline]	–
7.4 nM	CC1=CC(C)(C)Nc2ccc3c(c21)C(c1cccc(C(F)(F)F)c1)Oc1ccc(Cl)cc1-3 (stereo not shown) [Formula I X=9-Cl 3-CF3-Ph, reference compound]	–
9.4 nM	CC1=CC(C)(C)Nc2ccc3c(c21)C(c1ccc(Cl)c(C)c1)Oc1ccc(Cl)cc1-3 (stereo not shown) [Formula I X=9-Cl 4-Cl-3-Me-Ph, reference compound]	–
7.5 nM	C=CCC1Oc2ccc(F)cc2-c2ccc3c(c21)C(C)=CC(C)(C)N3 (stereo not shown) [Formula I X=9-F Allyl, reference compound]	–
9 nM	CCC1Oc2ccc(F)cc2-c2ccc3c(c21)C(C)=CC(C)(C)N3 (stereo not shown) [Formula I X=9-F Et, reference compound]	–
4.85 nM	CC1=CC(C)(C)Nc2ccc3c(c21)C(c1cccc(Cl)c1)Oc1ccc(C)cc1-3 (stereo not shown) [Formula I X=9-Me 3-Cl-Ph, reference compound]	–
44 nM	CC1=CC(C)(C)Nc2ccc3c(c21)C(c1cccc(C)c1)Oc1ccc(C)cc1-3 (stereo not shown) [Formula I X=9-Me 3-Me-Ph, reference compound]	–

EC50 [1]	SMILES	EC50 [2]
–	CC1=CC(C)(C)Nc2ccc3c(c21)C(c1ccc(Cl)c(C)c1)Oc1ccc(C)cc1-3 (stereo not shown) [Formula I X=9-Me 4-Cl-3-Me-Ph, reference compound]	7.45 nM
11 nM	COc1ccc2c(c1)-c1ccc3c(c1C(c1cccc(C)c1)O2)C(C)=CC(C)(C)N3 (stereo not shown) [Formula I X=9-OMe 3-Me-Ph, reference compound]	–
145 nM	CC1=CC(C)(C)Nc2ccc3c(c21)C(c1cccc(C)c1)Oc1ccccc1-3 (stereo not shown) [Formula I X=H 3-Me-Ph, reference compound]	–
48 nM	CC1=CC(C)(C)Nc2ccc3c(c21)C(c1ccc2c(c1)OCO2)Oc1ccccc1-3 (stereo not shown) [Formula I X=H Benzodioxol-5-yl, reference compound]	–
6.2 nM	CC1=CC(C)(C)Nc2ccc3c(c21)/C(=C/c1ccccc1)Oc1c(Cl)cccc1-3 [Formula II X=7-Cl Phenyl, reference compound]	–
3.95 nM	CC1=CC(C)(C)Nc2ccc3c(c21)/C(=C/c1cc(F)ccc1C)Oc1cc(F)c(F)cc1-3 [Formula II X=8,9-diF 2-Me-5-F-Ph, reference compound]	–
13 nM	CC1=CC(C)(C)Nc2ccc3c(c21)/C(=C/c1ccccc1C)Oc1cc(F)c(F)cc1-3 [Formula II X=8,9-diF 2-Me-Ph, reference compound]	–
13 nM	CC1=CC(C)(C)Nc2ccc3c(c21)/C(=C/c1ccccc1C)Oc1cc(F)ccc1-3 [Formula II X=8-F 2-Me-Ph, reference compound]	–
109 nM	CC1=CC(C)(C)Nc2ccc3c(c21)/C(=C/c1cccc(F)c1)Oc1cc(F)ccc1-3 [Formula II X=8-F 3-F-Ph, reference compound]	–
187 nM	CC1=CC(C)(C)Nc2ccc3c(c21)/C(=C/c1ccccc1)Oc1cc(F)ccc1-3 [Formula II X=8-F Phenyl, reference compound]	–
10 nM	CC1=CC(C)(C)Nc2ccc3c(c21)/C(=C/c1cc(F)ccc1F)Oc1cc(O)ccc1-3 [Formula II X=8-OH 2,5-diF-Ph, reference compound]	–
> 1000 nM	COc1ccc2c(c1)O/C(=C\c1ccccc1Cl)c1c-2ccc2c1C(C)=CC(C)(C)N2 [Formula II X=8-OMe 2-Cl-Ph, reference compound]	–
45 nM	COc1ccc2c(c1)O/C(=C\c1ccccc1F)c1c-2ccc2c1C(C)=CC(C)(C)N2 [Formula II X=8-OMe 2-F-Ph, reference compound]	–
3.5 nM	COc1ccc2c(c1)O/C(=C\c1ccccc1C)c1c-2ccc2c1C(C)=CC(C)(C)N2 [Formula II X=8-OMe 2-Me-Ph, reference compound]	–
24 nM	COc1ccc2c(c1)O/C(=C\c1ccccc1OC)c1c-2ccc2c1C(C)=CC(C)(C)N2 [Formula II X=8-OMe 2-MeO-Ph, reference compound]	–
8.6 nM	COc1ccc2c(c1)O/C(=C\c1cccc(F)c1)c1c-2ccc2c1C(C)=CC(C)(C)N2 [Formula II X=8-OMe 3-F-Ph, reference compound]	–
24 nM	COc1ccc2c(c1)O/C(=C\c1ccncc1C)c1c-2ccc2c1C(C)=CC(C)(C)N2 [Formula II X=8-OMe 3-Me-4-pyridinyl, reference compound]	–
36 nM	COc1ccc2c(c1)O/C(=C\c1ccncc1)c1c-2ccc2c1C(C)=CC(C)(C)N2 [Formula II X=8-OMe 4-pyridinyl, reference compound]	–
5.5 nM	COc1ccc2c(c1)O/C(=C\c1ccccc1)c1c-2ccc2c1C(C)=CC(C)(C)N2 [Formula II X=8-OMe Phenyl, reference compound]	–
25 nM	CC1=CC(C)(C)Nc2ccc3c(c21)/C(=C/c1cc(F)ccc1F)Oc1ccc(Cl)cc1-3 [Formula II X=9-Cl 2,5-diF-Ph, reference compound]	–
